Drawing on patent publication US20230285377A1, “KCNT1 INHIBITORS AND METHODS OF USE” (Praxis Precision Medicines, Inc., priority 2020, published 2023), this text covers IC50 for eleven molecules.

Sequence of KCNT1 (KNa1.1, Slack) (Q5JUK3 whole entry): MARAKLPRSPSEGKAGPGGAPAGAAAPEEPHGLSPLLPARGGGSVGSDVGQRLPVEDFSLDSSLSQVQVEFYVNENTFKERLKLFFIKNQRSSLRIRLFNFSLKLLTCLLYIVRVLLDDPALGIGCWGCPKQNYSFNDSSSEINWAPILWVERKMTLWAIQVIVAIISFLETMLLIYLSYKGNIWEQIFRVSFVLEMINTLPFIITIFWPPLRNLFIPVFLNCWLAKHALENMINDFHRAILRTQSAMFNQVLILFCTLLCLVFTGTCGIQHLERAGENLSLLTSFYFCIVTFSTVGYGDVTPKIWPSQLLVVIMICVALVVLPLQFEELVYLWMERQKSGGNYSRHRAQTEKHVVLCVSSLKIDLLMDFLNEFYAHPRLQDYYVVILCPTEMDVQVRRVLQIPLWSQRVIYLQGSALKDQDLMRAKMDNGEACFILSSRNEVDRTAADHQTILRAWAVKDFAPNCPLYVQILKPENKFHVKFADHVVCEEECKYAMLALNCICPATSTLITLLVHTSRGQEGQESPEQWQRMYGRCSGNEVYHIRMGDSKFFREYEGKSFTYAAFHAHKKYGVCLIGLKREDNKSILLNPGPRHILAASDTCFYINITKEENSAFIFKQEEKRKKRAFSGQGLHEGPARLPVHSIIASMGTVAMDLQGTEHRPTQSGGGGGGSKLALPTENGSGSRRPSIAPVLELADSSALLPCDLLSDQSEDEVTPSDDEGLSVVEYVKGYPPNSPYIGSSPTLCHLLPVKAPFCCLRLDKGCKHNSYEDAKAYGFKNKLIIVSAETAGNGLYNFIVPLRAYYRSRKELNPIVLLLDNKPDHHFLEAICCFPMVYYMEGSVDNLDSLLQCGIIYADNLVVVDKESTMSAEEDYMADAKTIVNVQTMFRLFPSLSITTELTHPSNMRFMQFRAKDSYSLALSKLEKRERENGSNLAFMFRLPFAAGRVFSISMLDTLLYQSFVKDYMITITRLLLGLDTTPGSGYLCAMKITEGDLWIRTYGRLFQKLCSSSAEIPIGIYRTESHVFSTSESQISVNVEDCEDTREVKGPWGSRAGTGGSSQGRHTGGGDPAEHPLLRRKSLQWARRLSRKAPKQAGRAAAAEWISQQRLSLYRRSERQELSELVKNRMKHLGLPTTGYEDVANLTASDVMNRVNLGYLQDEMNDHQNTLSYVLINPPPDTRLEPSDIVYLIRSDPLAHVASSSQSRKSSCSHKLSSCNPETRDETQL

The test deals with KCNT1 (KNa1.1, Slack) (Homo sapiens (Human), UniProt Q5JUK3). The test can be described thus: KCNT1-WT-Basal - Patch Clamp Assay. The test is classed as cell-based. The following applies: tetracycline inducible HEK-TREX cell line; SyncroPatch 384PE automated patch clamp; step to 0 mV; room temperature. The protocol:
Inhibition of KCNT1 (KNa1.1, Slack) was evaluated using a tetracycline inducible cell line (HEK-TREX). Currents were recorded using the SyncroPatch 384PE automated, patch clamp system. Pulse generation and data collection were performed with PatchController384 V1.3.0 and DataController384 V1.2.1 (Nanion Technologies). The access resistance and apparent membrane capacitance were estimated using built-in protocols. Current were recorded in perforated patch mode (10 µM escin) from a population of cells. The cells were lifted, triturated, and resuspended at 800,000 cells/ml. The cells were allowed to recover in the cell hotel prior to experimentation. Currents were recorded at room temperature. The external solution contained the following (in mM): NaCl 105, NMDG 40, KC1 4, MgC12 1, CaC12 5 and HEPES 10 (pH = 7.4, Osmolarity ~300 mOsm). The extracellular solution was used as the wash, reference and compound delivery solution. The internal solution contained the following (in mM): NaCl 70, KF 70, KC1 10, EGTA 5, HEPES 5 and Escin 0.01 (pH = 7.2, Osmolarity ~295 mOsm). Escin is made at a 5 mM stock in water, aliquoted, and stored at -20° C. The compound plate was created at 2x concentrated in the extracellular solution. The compound was diluted to 1:2 when added to the recording well. The amount of DMSO in the extracellular solution was held constant at the level used for the highest tested concentration. A holding potential of -80 mV with a 100 ms step to 0 mV was used. Mean current was measured during the step to 0 mV. […] The average mean current from 3 sweeps was calculated and the % inhibition of each compound was calculated. The % Inhibition as a function of the compound concentration was fit with a Hill equation to derive IC50, slope, min and max parameters. If KCNT1 inhibition was less than 50% at the highest tested concentration or if an IC50 could not be calculated, then a percent inhibition was reported in place of the IC50.
In this table, “A” indicates IC50 of less than or equal to 1 µM; “B” indicates inhibition of between 1 µM to 20 µM; and “C” indicates inhibition of greater than or equal to 20 µM.
On the technique in general: Patch clamp records ionic current or voltage across a cell membrane.
Regarding `C[C@H](NC(=O)c1cc(C(F)F)nn1C)c1cc(-c2ccnc(C(F)(F)F)c2)no1` (single isomer, unassigned) [Example 31], the IC50 (usually the concentration that inhibits the measured activity by half) is no more than 1000 nM. For `C[C@H](NC(=O)Cc1ccccc1)c1cc(-c2ccnc(C(F)(F)F)c2)no1` (single isomer, unassigned) [Example 29], the IC50 is 1000 to 20000 nM. In the case of `C[C@H](NC(=O)c1cc(C(F)(F)F)nn1C)c1nc(N2CCCCC2)ns1` [Example 46, 2-methyl-N-[(1S)-1-[3-(1-piperidyl)-1,2,4-thiadiazol-5-yl]ethyl]-5-(trifluoromethyl)pyrazole-3-carboxamide], the IC50 lay in the range of 1000 to 20000 nM. Take `C[C@@H](NC(=O)c1cc(C(F)(F)F)nn1C)c1cc(-c2ccnc(C3CC3)c2)no1` (single isomer, unassigned) [Example 16]: the IC50 is no more than 1000 nM. The molecule `CC(NC(=O)c1cc(C(F)(F)F)nn1C)c1nc(-c2ccnc(C(F)(F)F)c2)ns1` (centres unmarked) [Example 1, 1-methyl-3-(trifluoromethyl)-N-(1-(3-(2-(trifluoromethyl)pyridin-4-yl)-1,2,4-thiadiazol-5-yl)ethyl)-1H-pyrazole-5-carboxamide] displayed an IC50 of no more than 1000 nM. As for `C[C@@H](NC(=O)c1cc(C(F)F)nn1C)c1cc(-c2ccnc(C(F)(F)F)c2)no1` (single isomer, unassigned) [Example 30], the IC50 fell in the range of 1000 to 20000 nM. For `C[C@H](NC(=O)N1CCCCC1)c1cc(-c2ccnc(C(F)(F)F)c2)no1` (single isomer, unassigned) [Example 8], the IC50 was no less than 20000 nM.

Turning to `C[C@@H](NC(=O)N1CCOc2ccccc21)c1cc(-c2ccnc(C(F)(F)F)c2)no1` (single isomer, unassigned) [Example 39], the half-inhibitory concentration (IC50) was no more than 1000 nM.

`C[C@H](NC(=O)c1cc(C(F)(F)F)nn1C)c1cc(-c2ccnc(C3CC3)c2)no1` (single isomer, unassigned) [Example 17] yielded a half-inhibitory concentration (IC50) of 1000 to 20000 nM. On to `CC(C)c1cc(C(=O)N[C@@H](C)c2cc(-c3ccnc(C(F)(F)F)c3)no2)n(C)n1` (single isomer, unassigned) [Example 25, (N)-3-isopropyl-1-methyl-N-(1-(3-(2-(trifluoromethyl)pyridin-4-yl)isoxazol-5-yl)ethyl)-1H pyrazole-5-carboxamide], for which the IC50 is no more than 1000 nM. Molecule `C[C@H](NC(=O)c1ccnn1C1CCC1)c1cc(-c2ccnc(C(F)(F)F)c2)no1` (single isomer, unassigned) [Example 37] came in with a half-maximal inhibitory concentration (IC50) of 1000 to 20000 nM.
